Test results taken from ChEMBL document CHEMBL3600289, “A double bond-conjugated dimethylnitrobenzene-type photolabile nitric oxide donor with improved two-photon cross section” (Bioorg Med Chem Lett, 2015).
Activity calls are given as the source filed them. No cut-off for these calls is given here.

What was measured:
HCT-116 [1] = assay: Induction of nitric oxide release in human HCT116 cells at 25 uM incubated for 1 hr by confocal microscopic analysis in absence of irradiation; assay type: functional, cell-based
[2] = Induction of nitric oxide release in water/DMSO mixture irradiated with 100W Hg lamp at 330 to 380 nm at 1 mM by […] complex-based ESR spin trapping method; assay type: physicochemical; conditions: buffer, 0.38 µM
[3] = Induction of nitric oxide release in water/DMSO mixture irradiated with 100W Hg lamp at 450 to 480 nm at 1 mM by […] complex-based ESR spin trapping method; assay type: physicochemical; conditions: buffer, 0.48 µM
HCT-116 [4] = assay: Induction of nitric oxide release in human HCT116 cells at 25 uM preincubated for 1 hr followed by irradiation with 950 nm pulse laser for 1 sec by confocal microscopic analysis; assay type: functional, cell-based
[5] = Induction of nitric oxide release in water/DMSO mixture irradiated with 100W Hg lamp at 450 to 480 nm by […] complex-based ESR spin trapping method; assay type: physicochemical; conditions: buffer, 0.48 µM

Row | Compound | Activity (HCT-116 [1]) | Activity [2] | Activity [3] | Activity (HCT-116 [4]) | Activity [5]
1 | Cc1cc(/C=C/c2ccc(/C=C/c3ccc(-c4c5ccc(=O)cc-5oc5cc(O)ccc45)c(C(=O)O)c3)cc2)cc(C)c1[N+](=O)[O-] | inactive | Active | Active | Active | 
2 | Cc1cc(/C=C/c2ccc(C(=O)Nc3ccc(-c4c5ccc(=O)cc-5oc5cc(O)ccc45)c(C(=O)O)c3)cc2)cc(C)c1[N+](=O)[O-] |  |  |  |  | Not Active
